We go through two compounds from paper PMC3351969 (European Journal of Medical Research, 2009).

Data set [1] can be described thus: indocyanine green clearance. Format: in vivo, human. The conditions noted are these: HIV-patients, before and 6 months after initiation of HAART.
For data set [2], the system named is cytochrome p450 3A4 (CYP3A4). The data set can be described thus: monoethylglycinexylidide. Format: in vivo, human.

Consider `CC1(C)C(/C=C/C=C/C=C/C=C2\N(CCCCS(=O)(=O)O)c3ccc4ccccc4c3C2(C)C)=[N+](CCCCS(=O)(=O)[O-])c2ccc3ccccc3c21` [indocyanine green], for which the “indocyanine green clearance in relation to anti-retroviral regimens” value in data set [1] was “no correlation could be found”.

Consider `CCNCC(=O)Nc1c(C)cccc1C` [MEGX, monoethylglycinexylidide], for which the MEGX test in data set [2] (HIV-patients treated with various ART combinations, p = 0.23 vs healthy controls) was 49.9 ± 25.48 µg/L; in data set [2] (healthy controls without medication), 66.29 ± 38.55 µg/L.
